Reference: PubChem BioAssay (NCI)
Where “and” joins values, the source holds several entries; their conditions need not be identical. Equal entries are not always repeated.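 Cells were grown in 96-well plates and exposed to each compound for 48 hours at five concentrations; endpoints were interpolated linearly between bracketing concentrations, or set to the highest concentration if not reached. GI50 = concentration required for 50% inhibition of growth. TGI is the concentration that stops growth completely.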

What was measured:
Assay in all cases: NCI anticancer screen, dose series, 48 h
CAKI-1 renal = tested on: CAKI-1 renal
HOP-62 NSCLC = tested on: HOP-62 NSCLC
KM12 colon = tested on: KM12 colon
MDA-MB-231 breast = tested on: MDA-MB-231 breast
NCI-H522 lung = tested on: NCI-H522 lung
NCI/ADR-RES ovarian = tested on: NCI/ADR-RES ovarian
SF-268 CNS = tested on: SF-268 CNS
SF-539 CNS = tested on: SF-539 CNS
SNB-78 CNS = tested on: SNB-78 CNS

Structure (SMILES)	GI50 (CAKI-1 renal)	TGI (CAKI-1 renal)	GI50 (HOP-62 NSCLC) [µM]	TGI (HOP-62 NSCLC) [µM]	GI50 (KM12 colon)	TGI (KM12 colon) [µM]	GI50 (MDA-MB-231 breast) [µM]	TGI (MDA-MB-231 breast) [µM]	GI50 (NCI-H522 lung) [µM]	GI50 (NCI/ADR-RES ovarian)	TGI (NCI/ADR-RES ovarian) [µM]	GI50 (SF-268 CNS) [µM]	TGI (SF-268 CNS) [µM]	GI50 (SF-539 CNS)	TGI (SF-539 CNS)	TGI (NCI-H522 lung) [µM]	GI50 (SNB-78 CNS) [µM]	TGI (SNB-78 CNS) [µM]
COc1cc2c(cc1OC)[C@@H]1C(=O)c3ccc4c(c3O[C@@H]1CO2)C[C@H](C(C)C)O4	4.41 µM	> 47.4 µM	9.23	> 60.6	5.31 µM	26.1	21.6	> 100	0.961	0.248 µM	> 29.1	11.7	> 62.2	15 µM	> 53.4 µM			
O=C1OC2(c3ccc(O)cc3Oc3cc(O)ccc32)c2cccc3cccc1c23	24.6 µM	> 100 µM	17	33.9	23.2 µM	57.8	14.3	40.3	17.5	31.7 µM	> 100	29.5	> 100	18.7 µM	43.4 µM	43.7		
c1cc[c]([Ge]([O]c2cccc3cccnc23)([c]2ccccc2)[c]2ccccc2)cc1	10.8 µM	28.9 µM	12.7	25.6	1.95 µM	5.09			1.9			3.55	15	3.36 µM	11.3 µM	3.74	4.34	17.7
Cc1nnn(C)c1-c1cnc2c3ccc(C(C)(C)O)cc3n([C@H](c3ccccc3)C3CCOCC3)c2c1	< 0.01 µM	13.2 µM	< 0.0227	> 46.9	0.141 µM	> 91.4	< 0.01	24.7	< 0.01	0.26 µM	37.8	5.22	> 100	< 0.0182 µM	51.1 µM	20.9		
O=C(COc1ccccc1)NNc1ccccc1	6.78 µM and 5.97 µM	> 80.2 µM and 182 µM	116	> 300	9.03 µM and 6.49 µM	> 300	73.2	> 300	7.79	58.1 µM and 63.3 µM	> 300	140	> 300	18.1 µM and 9.52 µM	55.1 µM and 37.6 µM			
CCOc1ccc(-c2nc3ccc(-c4nc5ccc(N6CCN(C)CC6)cc5[nH]4)cc3[nH]2)cc1	0.555 µM	2.55 µM	0.456	1.6	0.999 µM	2.15	1.25	2.6	0.09	5.4 µM	> 100	0.361	1.67	0.689 µM	2 µM	0.442		
COc1ccc(Nc2ncc(I)c(NCCCNC(=O)C3CCC3)n2)cc1	1.32 µM	16 µM	1.64	21.8	3.42 µM	> 100	1.66	5.31	20.9	12 µM	> 100	2.01	29.9	3.47 µM	18.4 µM	> 100		
OCc1ccc(-c2nc(-c3ccc4c(c3)OCO4)c(-c3ccccn3)[nH]2)cc1	11.4 µM	> 25 µM	> 25	> 25	> 25 µM	> 25	10.2	> 25	> 25	10.4 µM	> 25	> 25	> 25	> 25 µM	> 25 µM	> 25		
COc1ccc(OC)c(N2CC(O)=C(c3nc4ccccc4s3)C2=N)c1	76.6 µM	> 100 µM	> 100	> 100	39.1 µM	> 100	20.6	> 100	17.9	88.9 µM	> 100	> 100	> 100	83.8 µM	> 100 µM	78.1		
Oc1ccc(N=Nc2ccc(Br)cc2)c(O)c1	4 µM	21 µM	3.9	19.5	3.31 µM	39.8	3.47	16.6	1.74	3.07 µM	9.29	5.84	> 100	1.93 µM	5.14 µM	6.53		
CCOC(=O)c1ccc(N2NC(=O)/C(=C/c3ccc([N+](=O)[O-])o3)C2=O)cc1	5.76 µM	13.6 µM	29.9	> 55.7	> 40.7 µM	> 55.3	22.5	52.9	4.18	25.9 µM	> 71.8	24.2	> 55.3	18.8 µM	46 µM	8.53		
CC(C)(C)c1cc(C[P+](c2ccccc2)(c2ccccc2)c2ccccc2)cc(C(C)(C)C)c1O	2.64 µM	8.7 µM	0.66	3.94	0.364 µM	1.51	0.473	2.84	0.33	9.12 µM	33.8	0.429	15	0.854 µM	7.83 µM	1.91		
CCc1cc2c(c(OCC(F)(F)F)c(C(=O)NC3CCN(C(=O)CO)CC3)n2C)c(=O)n1CC(=O)c1ccccc1	> 60.3 µM	> 100 µM	> 80.9	> 100	58.5 µM	> 100	54.6	> 100	> 95.9	> 68.4 µM	> 100	> 90.3	> 100	36.5 µM	> 100 µM	> 100		
COc1cccc(S(=O)(=O)NC2=NCCN2C(=S)SN2CCn3c2nsc3=S)c1	32 µM	66.2 µM	55.5	> 100	30.5 µM	80.1	28.1	96	20.1	52.4 µM	> 100	59.3	> 100	27.3 µM	70 µM	40.9		
Nc1nc(-c2cccnc2)cc(-c2cc(-c3cccnc3)nc(N)n2)n1		> 100 µM		> 100		> 100		> 100			> 100		> 100		> 100 µM	> 100		
